Test results taken from patent US20090118316A1, “Methods for Augmenting Bone” (PFZER INC., priority 2004, published 2009).
Entries after “also recorded” stand apart in the source; their conditions may differ.

Experiments:
[1] = OVX rat model: body weight; assay type: in vivo; details: OVX rats, oral gavage 28 days, vs vehicle-treated OVX; PF—X (di-hydrochloride salt) 10 or 30 mg/kg/d, EE 30 μg/kg/d
[2] = tested on: ovariectomized (OVX) rat model; experiment: OVX rat model: trabecular bone histomorphometry of proximal tibial metaphysis; assay type: in vivo; details: OVX rats vs vehicle, PF—X 30 mg/kg/d, 28 days; for bone formation rate/BV / bone formation rate/TV / mineral apposition rate / osteoclast number / osteoclast surface / percent mineralizing surface: EE 30 μg/kg/d
[3] = tested on: ovariectomized (OVX) rat model; experiment: OVX rat model: pQCT analysis of distal femoral metaphysis; assay type: in vivo; details: OVX rats vs vehicle, PF—X 10 or 30 mg/kg/d, 28 days; for cortical bone content / total bone mineral content / total bone mineral density: EE 30 μg/kg/d
[4] = tested on: ovariectomized (OVX) rat model; experiment: OVX rat model: serum osteocalcin by RIA; assay type: in vivo; details: OVX rats, 2 weeks post-treatment, vs vehicle-treated OVX rats
[5] = tested on: murine mesenchymal stem cells; experiment: Alkaline phosphatase activity in murine MSC; assay type: cell-based, mouse; details: murine MSCs, OS media, 1 μM dexamethasone or increasing doses of PF—Y; units per culture or per μg DNA (FIG. 2)
Description: (§1) Quantitative Alkaline Phosphatase Measurement. For quantitative alkaline phosphatase measurements, cells were washed twice with Dulbecco's phosphate buffered saline (DPBS) followed by incubation with substrate buffer (50 mM glycine, 1 mM magnesium chloride, pH 10.5) containing 1.3 mg/ml p-nitrophenol phosphate. The levels of alkaline phosphatase activity were determined by measuring the absorbance at 405 nm and compared to p-nitrophenol standards. The level of alkaline phosphatase activity was corrected for the amount of DNA in each sample.
(§2) Murine mesenchymal stem cells isolated from femurs and tibiae of C57BI/6 mice were cultured in alpha-MEM containing 10% fetal bovine serum (FBS) and plated in six well dishes at a density of […]. The day after plating, the media were removed and replaced with media alone, in media with OS, or in OS media containing either 1 μM of dexamethasone or increasing doses of PF—Y for 21 days. “OS” medium” contains 50 μM ascorbic acid and 10 mM β-glycerophosphate. Media were refreshed every 3 days. The amount of alkaline phosphatase was measured on day 7 and day 21. The amounts of secreted calcium were determined only on day 21. The VonKossa stain was done after staining day 21 samples for alkaline phosphatase.

[6] = tested on: human mesenchymal stem cells; experiment: Alkaline phosphatase activity in human MSC; assay type: cell-based; details: human MSCs, OS media; units per μg DNA (FIG. 4)
Description: as §1
(§3) Human mesenchymal stem cells were cultured in DMEM-high glucose containing 10% FBS and 10 mM l-glutamine and plated in six well dishes at a density of 3×10^4 cells/well. The day after plating, these cultures were treated and analyzed as in Example 2.

murine MC3T3 cells = experiment: Alkaline phosphatase activity in MC3T3 cells; assay type: cell-based, mouse; details: OS media with increasing doses of PF—Y, units per plate or per μg DNA (FIG. 6)
Description: as §1
MC3T3 cells were cultured in alpha-MEM media containing 10% FBS and plated in six well dishes at a density of 5×10^4 cells/well. The day after plating, the media were removed and OS media with increasing doses of PF—Y were added. Media were refreshed every 3 days. The amount of alkaline phosphatase was measured as in Example 2 and 3.

PYK2 = biological target: T1, PYK2 (Mus musculus, UniProt Q9QVP9); experiment: AIF-stimulated phosphorylation of PYK2 tyrosine 402 in MC3T3 cells (immunoprecipitation, SDS-PAGE); assay type: cell-based; details: Aluminum fluorate (AIF), 3 mM PF—Y (FIG. 7)
T1 construct: endogenous in cells; host or cells: murine MC3T3 cells
T1 sequence (Q9QVP9 whole entry): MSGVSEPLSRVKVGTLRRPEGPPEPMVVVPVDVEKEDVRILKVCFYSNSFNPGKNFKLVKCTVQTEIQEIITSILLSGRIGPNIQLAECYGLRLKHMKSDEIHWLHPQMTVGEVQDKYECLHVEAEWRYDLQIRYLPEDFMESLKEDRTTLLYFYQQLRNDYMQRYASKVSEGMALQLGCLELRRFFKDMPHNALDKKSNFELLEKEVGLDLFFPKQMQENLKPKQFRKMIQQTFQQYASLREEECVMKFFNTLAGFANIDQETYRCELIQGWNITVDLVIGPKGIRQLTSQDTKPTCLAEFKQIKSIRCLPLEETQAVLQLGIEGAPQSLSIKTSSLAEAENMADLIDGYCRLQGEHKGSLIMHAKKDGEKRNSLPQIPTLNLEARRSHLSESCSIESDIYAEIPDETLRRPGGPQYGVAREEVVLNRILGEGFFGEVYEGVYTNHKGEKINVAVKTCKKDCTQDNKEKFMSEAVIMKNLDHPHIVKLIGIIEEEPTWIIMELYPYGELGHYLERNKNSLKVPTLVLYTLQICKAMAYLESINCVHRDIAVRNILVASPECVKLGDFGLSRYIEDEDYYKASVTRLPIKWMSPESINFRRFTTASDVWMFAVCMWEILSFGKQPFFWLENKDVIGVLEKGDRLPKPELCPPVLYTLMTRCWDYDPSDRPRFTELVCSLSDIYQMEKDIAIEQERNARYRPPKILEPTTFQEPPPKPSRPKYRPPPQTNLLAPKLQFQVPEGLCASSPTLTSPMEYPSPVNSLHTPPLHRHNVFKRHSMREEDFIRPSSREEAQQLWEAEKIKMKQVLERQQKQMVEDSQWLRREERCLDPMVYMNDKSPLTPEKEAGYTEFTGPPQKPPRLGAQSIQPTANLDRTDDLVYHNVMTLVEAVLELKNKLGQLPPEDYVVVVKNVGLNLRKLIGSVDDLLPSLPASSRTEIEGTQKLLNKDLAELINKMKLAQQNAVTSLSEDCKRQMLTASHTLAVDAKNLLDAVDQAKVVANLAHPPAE
Description: Murine MC3T3 cells were treated with Aluminum fluorate (AIF) alone or in the presence of 3 mM PF—Y. Cells were lysed and the amount of total PYK2 and phosphorylated PYK2 (P-Y402) were determined by immunoprecipitation with antibodies that recognize total PYK2 or phosphorylated Tyr 402 PYK2 followed by SDS-PAGE.

[7] = tested on: human mesenchymal stem cells; experiment: Calcium deposition in human MSC; assay type: cell-based; details: human MSCs, compared to OS media alone; PF—Y especially the two lower doses (FIG. 5)
Description: (§4) Calcium Assay. Calcium deposited by the cells was measured using a diagnostic kit (Sigma #587A). Briefly, cells were rinsed twice with DPBS and hydrolyzed in 0.5 N HCl rotating overnight at 4°. Cells were then scraped and cellular debris was pelleted. Supernatants were used to measure calcium levels following manufacturer's protocol. The absorbance at 570 nm was determined and compared to calcium standards. Calcium levels were corrected for the DNA content in each well.
as §3

[8] = tested on: murine mesenchymal stem cells; experiment: Calcium deposition in murine MSC; assay type: cell-based, mouse; details: murine MSCs, OS media, day 21, 1 μM dexamethasone or increasing doses of PF—Y; μg per culture or per μg DNA (FIG. 3)
Description: as §4, §2

| Compound | body weight [1] | bone formation rate/BV [2] | bone formation rate/TV [2] | mineral apposition rate [2] | osteoclast number [2] | osteoclast surface [2] | percent mineralizing surface [2] | cortical bone content [3] | total bone mineral content [3] | total bone mineral density [3] | Serum osteocalcin [4] | other results |
| --- | --- | --- | --- | --- | --- | --- | --- | --- | --- | --- | --- | --- |
| C#C[C@]1(O)CC[C@H]2[C@@H]3CCc4cc(O)ccc4[C@H]3CC[C@@]21C [EE, 17[…]-ethynyl estradiol, reference compound] | prevented OVX-induced weight gain | decreases | decreases | decreases | decreases | decreases | decreases | higher | higher | higher | significantly decreased |  |
| CN(c1ccccc1CNc1nc(Nc2ccc3c(c2)CC(=O)N3)ncc1C(F)(F)F)S(C)(=O)=O [PF—X] | No significant difference | significant increase | significant increase | significant increase | significant decrease | significant decrease | significant increase | significant increases | significant increases | significant increases | significantly increased | trabecular bone volume [2]: significant increase; trabecular thickness [2]: significant increase; total bone area [3]: significant increases; trabecular bone density [3]: significant increases |
| Cc1cc(C)c(/C=C2\C(=O)Nc3ccc(O)cc32)[nH]1 [PF—Y] |  |  |  |  |  |  |  |  |  |  |  | alkaline phosphatase activity [5]: elevated; alkaline phosphatase activity [6]: elevated; alkaline phosphatase activity (murine MC3T3 cells): elevated; AIF-induced phosphorylation of tyrosine 402 of PYK2 (PYK2): inhibited; also recorded: inhibition; calcium deposition [7]: increased; calcium deposition [8]: increased |
